According to US20050032873A1, “3-Amino chroman and 2-amino tetralin derivatives” (Wyeth, priority 2003, published 2005):
Like-named read-outs stand apart in the source and are kept apart here.

Key:
[1] = biological target: T1, cloned human 5-HT1A receptors (Homo sapiens, UniProt P08908); test: 35S-GTPγS binding assay, 5-HT1A function; type: biochemical; conditions: for IC50: antagonist potency, reversal of 8-OH-DPAT, read-out: 5-HT1A Function GTPγS IC50; for EC50: agonist potency
T1 construct: expressed in transfected cells
T1 sequence (P08908 1-422): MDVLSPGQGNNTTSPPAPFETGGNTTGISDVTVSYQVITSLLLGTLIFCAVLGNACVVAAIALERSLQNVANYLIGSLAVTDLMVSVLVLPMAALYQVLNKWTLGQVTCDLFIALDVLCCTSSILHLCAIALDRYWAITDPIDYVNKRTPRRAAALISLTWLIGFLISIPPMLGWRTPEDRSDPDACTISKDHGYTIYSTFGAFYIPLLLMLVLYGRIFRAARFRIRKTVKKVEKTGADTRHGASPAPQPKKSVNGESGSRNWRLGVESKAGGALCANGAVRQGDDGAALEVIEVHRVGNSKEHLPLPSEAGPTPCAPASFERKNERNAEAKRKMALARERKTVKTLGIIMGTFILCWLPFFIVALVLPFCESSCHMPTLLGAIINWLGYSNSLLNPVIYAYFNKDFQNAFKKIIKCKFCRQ

5-HT1A receptor [2] = biological target: T2, 5-HT1A receptor (Homo sapiens, UniProt P08908); test: cAMP accumulation assay, 5-HT1A function; type: cell-based; conditions: for IC50: cells marked IC50 (antagonist), read-out: 5-HT1A Function cAMP IC50; for Emax: in brackets after EC50 or IC50, read-out: 5-HT1A Function cAMP (Emax); for EC50: cells marked EC50 (agonist)
T2 sequence (P08908 1-422): T1 sequence (P08908 1-422)
Source text: The agonist or antagonist activity at 5-HT1A receptors was established by using two different assays. […] Agonists produce an increase in binding whereas antagonists produce no increase but rather reverse the effects of the standard agonist 8-OH-DPAT. The test compound's maximum stimulatory effect is represented as the Emax, while its potency is defined by the EC50. The test compound's maximum inhibitory effect is represented as the Imax, while its potency is defined by the IC50. The second assay measured cAMP accumulation upon binding of the ligand to the 5-HT1A receptor. […] The test compound's maximum stimulatory or inhibitory effect is represented as the Emax while its potency is defined by either IC50 for an antagonist or EC50 for an agonist. [^3H]-8-OH-DPAT was used to determine maximum agonist or antagonist response in both functional assays.

5-HT1A receptor [3] = biological target: T2, 5-HT1A receptor; test: 5-HT1A receptor affinity: displacement of [3H] 8-OH-DPAT; type: binding; parameters: expressed in transfected cells; conditions: displacement of [3H] 8-OH-DPAT; CHO cells stably transfected with human 5-HT1A receptors; read-out: 5-HT1A Receptor Affinity Ki
serotonin transporter = biological target: T3, serotonin transporter (Rattus norvegicus, UniProt P31652); test: 5-HT transporter affinity: displacement of 3H-paroxetine from male rat cortical membranes; type: binding; conditions: for Ki: displacement of 3H-paroxetine, male rat cortical membranes, read-out: 5-HT Transporter Affinity Ki
T3 construct: displace ^3H-paroxetine from male rat cortical membranes; from tissue; host or cells: male rat cortical membranes
T3 sequence (P31652 whole entry): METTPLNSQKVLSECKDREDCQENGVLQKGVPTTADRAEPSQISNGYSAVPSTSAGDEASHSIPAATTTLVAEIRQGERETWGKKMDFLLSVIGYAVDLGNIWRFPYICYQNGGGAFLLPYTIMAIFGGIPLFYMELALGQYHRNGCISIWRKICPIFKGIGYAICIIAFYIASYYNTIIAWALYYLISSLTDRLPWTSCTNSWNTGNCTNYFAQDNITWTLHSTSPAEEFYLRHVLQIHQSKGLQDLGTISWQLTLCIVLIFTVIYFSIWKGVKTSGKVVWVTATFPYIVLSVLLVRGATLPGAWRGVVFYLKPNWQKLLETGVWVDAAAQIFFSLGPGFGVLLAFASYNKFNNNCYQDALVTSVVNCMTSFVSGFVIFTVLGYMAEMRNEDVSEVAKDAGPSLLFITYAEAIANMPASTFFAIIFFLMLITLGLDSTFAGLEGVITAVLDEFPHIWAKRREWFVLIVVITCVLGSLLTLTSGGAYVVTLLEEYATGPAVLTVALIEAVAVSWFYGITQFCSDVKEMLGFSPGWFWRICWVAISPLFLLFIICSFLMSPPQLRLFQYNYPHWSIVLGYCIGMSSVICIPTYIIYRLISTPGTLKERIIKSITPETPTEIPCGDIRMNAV

[4] = maximum inhibitory effect, in brackets after IC50, read-out: 5-HT1A Function GTPγS (Imax)
[5] = maximum stimulatory effect, in brackets after EC50, read-out: 5-HT1A Function GTPγS (Emax)

| SMILES | IC50 [1] [nM] | Emax [1, 4] [%] | IC50 (5-HT1A receptor [2]) [nM] | Emax (5-HT1A receptor [2]) [%] | Ki (5-HT1A receptor [3]) [nM] | Ki (serotonin transporter) [nM] | EC50 [1] [nM] | Emax [1, 5] [%] | EC50 (5-HT1A receptor [2]) [nM] | 5-HT Transporter Affinity, % @ 1 μM (serotonin transporter; @ 1 μM) [% @ 1 μM] |
| --- | --- | --- | --- | --- | --- | --- | --- | --- | --- | --- |
| CNC(=O)c1ccc(F)c2c1CC(N(CCc1c[nH]c3ccc(F)cc13)C1CCC1)CO2 (stereo not drawn) [Compound 87, 3-{cyclobutyl[2-(5-fluoro-1H-indol-3-yl)ethyl]amino}-8-fluoro-N-methylchromane-5-carboxamide] | 513 | 100 | 172 | 0 | 7.01 | 26.5 |  |  |  |  |
| CCCN(CCCc1c[nH]c2ccc(F)cc12)C1COc2c(F)ccc(C(=O)NC)c2C1 (stereo not drawn) [Compound 90, 8-fluoro-3-[[3-(5-fluoro-1H-indol-3-yl)propyl](propyl)amino]-N-methylchromane-5-carboxamide] | 617 | 33 | 73.8 | 0 | 0.81 | 3.37 | 34.5 | 47 |  |  |
| CNC(=O)c1ccc(F)c2c1CC(N(CCCc1c[nH]c3ccc(F)cc13)CC1CC1)CO2 (stereo not drawn) [Compound 91, 3-{(cyclopropylmethyl)[3-(5-fluoro-1H-indol-3-yl)propyl]amino}-8-fluoro-N-methylchromane-5-carboxamide] | 191 | 77 | 88.3 | 0 | 2.28 | 3.33 |  |  |  |  |
| CNC(=O)c1ccc(F)c2c1CC(N(CCCCc1c[nH]c3ccc(F)cc13)CC1CC1)CO2 (stereo not drawn) [Compound 94, 3-{(cyclopropylmethyl)[4-(5-fluoro-1H-indol-3-yl)butyl]amino}-8-fluoro-N-methylchromane-5-carboxamide] | 141 | 100 | 58.4 | 0 | 1.66 | 1.27 |  |  |  |  |
| N#Cc1ccc2[nH]cc(CCCN(C3CCC3)[C@H]3COc4c(F)ccc(C(N)=O)c4C3)c2c1 [Compound 97b, (3R)-3-[[3-(5-cyano-1H-indol-3-yl)propyl](cyclobutyl)amino]-8-fluorochromane-5-carboxamide] | 317 | 100 | 71 | 0 | 1.98 | 2.44 |  |  |  |  |
| N#Cc1ccc2[nH]cc(CCCN(CC3CC3)[C@@H]3COc4c(F)ccc(C(N)=O)c4C3)c2c1 [Compound 98a, (3S)-3-[[3-(5-cyano-1H-indol-3-yl)propyl](cyclopropylmethyl)amino]-8-fluorochromane-5-carboxamide] | 586 | 51 | 113 | 0 | 4.72 | 3.2 |  |  |  |  |
| CCCN(CCCc1c[nH]c2c(OC)cccc12)C1COc2c(F)ccc(C(N)=O)c2C1 (stereo not drawn) [Compound 100, 8-fluoro-3-[[3-(7-methoxy-1H-indol-3-yl)propyl](propyl)amino]chromane-5-carboxamide] |  |  |  | 87 | 3.85 | 141 | 67.6 | 100 | 61.5 |  |
| COc1cccc2c(CCCN(C3CCC3)C3COc4c(F)ccc(C(N)=O)c4C3)c[nH]c12 (stereo not drawn) [Compound 102, 3-{cyclobutyl[3-(7-methoxy-1H-indol-3-yl)propyl]amino}-8-fluorochromane-5-carboxamide] | 557 | 100 | 270 | 0 | 3.22 | 1110 |  |  |  |  |
| COc1cccc2c(CCCN(CC3CC3)C3COc4c(F)ccc(C(N)=O)c4C3)c[nH]c12 (stereo not drawn) [Compound 103, 3-{(cyclopropylmethyl)[3-(7-methoxy-1H-indol-3-yl)propyl]amino}-8-fluorochromane-5-carboxamide] | 1000 | 95 | 172 | 0 | 3.54 | 976 |  |  |  |  |
| COc1ccc2[nH]cc(CCCN(C3CCC3)C3COc4c(F)ccc(C(N)=O)c4C3)c2c1 (stereo not drawn) [Compound 107, 3-{cyclobutyl[3-(5-methoxy-1H-indol-3-yl)propyl]amino}-8-fluorochromane-5-carboxamide] | 253 | 100 | 45.1 | 0 | 1.19 | 834 |  |  |  |  |
| COc1ccc2[nH]cc(CCCN(CC3CC3)C3COc4c(F)ccc(C(N)=O)c4C3)c2c1 (stereo not drawn) [Compound 108, 3-{(cyclopropylmethyl)[3-(5-methoxy-1H-indol-3-yl)propyl]amino}-8-fluorochromane-5-carboxamide] | 94.2 | 100 | 45.4 | 0 | 1.17 | 882 |  |  |  |  |
| CCN(CCCc1c[nH]c2c(Cl)cccc12)C1COc2c(F)ccc(C(N)=O)c2C1 (stereo not drawn) [Compound 110, 3-[[3-(7-chloro-1H-indol-3-yl)propyl](ethyl)amino]-8-fluorochromane-5-carboxamide] | 196 | 59 |  | 75 | 6.45 | 4.59 | 244 | 61 | 36.4 |  |
| NC(=O)c1ccc(F)c2c1CC(N(CCCc1c[nH]c3c(Cl)cccc13)C1CCC1)CO2 (stereo not drawn) [Compound 111, 3-[[3-(7-chloro-1H-indol-3-yl)propyl](cyclobutyl)amino]-8-fluorochromane-5-carboxamide] | 1600 | 100 | 1060 | 0 | 26 | 66 |  |  |  |  |
| NC(=O)c1ccc(F)c2c1CC(N(CCCc1c[nH]c3c(Cl)cccc13)CC1CC1)CO2 (stereo not drawn) [Compound 112, 3-[[3-(7-chloro-1H-indol-3-yl)propyl](cyclopropylmethyl)amino]-8-fluorochromane-5-carboxamide] | 241 | 100 | 56.8 | 0 | 0.74 | 61 |  |  |  |  |
| CCCN(CCCc1c[nH]c2c(Cl)cccc12)C1COc2c(F)ccc(C(N)=O)c2C1 (stereo not drawn) [Compound 113, 3-[[3-(7-chloro-1H-indol-3-yl)propyl](propyl)amino]-8-fluorochromane-5-carboxamide] |  |  |  | 91 | 2.02 | 51 | 87.2 | 56 | 16 |  |

Next, values leading:

| IC50 [1] [nM] | Emax [1, 4] [%] | IC50 (5-HT1A receptor [2]) [nM] | Emax (5-HT1A receptor [2]) [%] | Ki (5-HT1A receptor [3]) [nM] | Ki (serotonin transporter) [nM] | EC50 [1] [nM] | Emax [1, 5] [%] | EC50 (5-HT1A receptor [2]) [nM] | 5-HT Transporter Affinity, % @ 1 μM (serotonin transporter; @ 1 μM) [% @ 1 μM] | SMILES |
| --- | --- | --- | --- | --- | --- | --- | --- | --- | --- | --- |
| 304 | 100 | 228 | 0 | 7.67 | 2.49 |  |  |  |  | CCCN(CCCCc1c[nH]c2ccc(F)cc12)C1COc2c(F)ccc(C(=O)NC)c2C1 (stereo not drawn) [Compound 93, 8-fluoro-3-[[4-(5-fluoro-1H-indol-3-yl)butyl](propyl)amino]-N-methylchromane-5-carboxamide] |
| 422 | 100 | 121 | 0 | 10 | 6.4 |  |  |  |  | CNC(=O)c1ccc(F)c2c1CC(N(CCCCc1c[nH]c3ccc(F)cc13)C1CCC1)CO2 (stereo not drawn) [Compound 95, 3-{cyclobutyl[4-(5-fluoro-1H-indol-3-yl)butyl]amino}-8-fluoro-N-methylchromane-5-carboxamide] |
| 456 | 99 | 162 | 0 | 6.8 | 5.5 |  |  |  |  | N#Cc1ccc2[nH]cc(CCCN(CC3CC3)[C@H]3COc4c(F)ccc(C(N)=O)c4C3)c2c1 [Compound 98b, (3R)-3-[[3-(5-cyano-1H-indol-3-yl)propyl](cyclopropylmethyl)amino]-8-fluorochromane-5-carboxamide] |
|  |  |  | 68.5 | 0.5 | 642 | 103 | 99 | 45.1 |  | CCN(CCCc1c[nH]c2c(OC)cccc12)C1COc2c(F)ccc(C(N)=O)c2C1 (stereo not drawn) [Compound 101, 3-{ethyl[3-(7-methoxy-1H-indol-3-yl)propyl]amino}-8-fluorochromane-5-carboxamide] |
| 111 | 42 |  | 99 | 0.61 |  | 53.1 | 47 | 2.53 | 53 | CCCN(CCCc1c[nH]c2ccc(OC)cc12)C1COc2c(F)ccc(C(N)=O)c2C1 (stereo not drawn) [Compound 106, 8-fluoro-3-[[3-(5-methoxy-1H-indol-3-yl)propyl](propyl)amino]chromane-5-carboxamide] |
|  |  |  | 67.5 | 97 | 69.5 | 1320 | 64 | 244 |  | NC(=O)c1ccc(F)c2c1CC(NCCCc1c[nH]c3ccc(Cl)cc13)CO2 (stereo not drawn) [Compound 114, 3-{[3-(5-chloro-1H-indol-3-yl)propyl]amino}-8-fluorochromane-5-carboxamide] |
